This passage reports GI50 and TGI results from PubChem BioAssay (NCI).

Test systems include NCI-H226 lung; UO-31 renal; SF-539 CNS; OVCAR-8 ovarian; CAKI-1 renal; HOP-92 NSCLC; SF-268 CNS; HCT-116 colon; LOX IMVI melanoma; OVCAR-4 ovarian.
Common to all, as to assay: DTP human tumour cell line panel, 48 h

The structures appear in SMILES notation. Several values for one entry are separate records, joined by “and”; a condition that tells them apart may be missing. Equal values may be shown once.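 All cell lines were grown in 96-well plates and treated with compound for 48 hours. At the GI50, growth is halved. TGI: total growth inhibition.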

In the case of `CO[C@H]1/C=C/O[C@@]2(C)Oc3c(C)c(O)c4c(c3C2=O)C(=O)C(/C=N/N(c2ccccc2)c2ccccc2)=C(NC(=O)/C(C)=C\C=C\[C@H](C)[C@H](O)[C@@H](C)[C@@H](O)[C@@H](C)[C@H](OC(C)=O)[C@@H]1C)C4=O`, the GI50 (in general, the concentration that inhibits growth by half) in the test with NCI-H226 lung was 1.97 µM; in the test with UO-31 renal it was 1.65 µM; in the test with SF-539 CNS, 1.8 µM; in the test with OVCAR-8 ovarian, 1.99 µM; with CAKI-1 renal it was 1.72 µM; with HOP-92 NSCLC, 1.88 µM. Further, the GI50 is 1.79 µM in the test with SF-268 CNS, 1.47 µM in the test on HCT-116 colon, 1.95 µM in the test with LOX IMVI melanoma and 1.65 µM in the test with OVCAR-4 ovarian. For the same compound, the TGI (as a rule, the concentration at which net growth stops) stood at 3.98 µM with NCI-H226 lung; 3.21 µM with UO-31 renal; 3.56 µM with SF-539 CNS; 4.21 µM in the test with OVCAR-8 ovarian; 3.38 µM with CAKI-1 renal; 3.52 µM with HOP-92 NSCLC. Moreover, the TGI in the test on SF-268 CNS turned out to be 3.37 µM; in the test with HCT-116 colon, 2.96 µM; with LOX IMVI melanoma, 3.79 µM; in the test on OVCAR-4 ovarian, 3.15 µM.
For `O=c1nc(/C=C/c2ccccc2Cl)cc2n1CCN2CCO`, the concentration for total growth inhibition (TGI) in the test with NCI-H226 lung, in the test with UO-31 renal, in the test on SF-539 CNS, in the test on OVCAR-8 ovarian, with CAKI-1 renal and in the test with HOP-92 NSCLC was above 100 µM throughout. Besides, the concentration for total growth inhibition (TGI) in the test on SF-268 CNS, with HCT-116 colon, in the test on LOX IMVI melanoma and in the test with OVCAR-4 ovarian was above 100 µM throughout.
`COc1cc(C#Cc2ccc(=O)oc2C#Cc2ccccc2)cc(OC)c1OC`: the GI50 with NCI-H226 lung was 2.59 µM; in the test with UO-31 renal, 1.51 µM; in the test with SF-539 CNS it was 3.58 µM; in the test on OVCAR-8 ovarian it was 2.93 µM; with CAKI-1 renal it was 2.12 µM; with HOP-92 NSCLC, 5.13 µM. In addition, the GI50 with SF-268 CNS was 2.38 µM; with HCT-116 colon it was 2.04 µM; with LOX IMVI melanoma it was 1.1 µM; with OVCAR-4 ovarian, 4.97 µM. Moreover, the TGI in the test on NCI-H226 lung is 7.41 µM; with UO-31 renal, 3.04 µM; in the test on SF-539 CNS, 11.3 µM; with OVCAR-8 ovarian it was 10.3 µM; with CAKI-1 renal, 4.26 µM; with HOP-92 NSCLC it was 12.4 µM. Further, the concentration for total growth inhibition (TGI) in the test with SF-268 CNS worked out at 5.85 µM; in the test with HCT-116 colon, 4.57 µM; in the test on LOX IMVI melanoma, 2.6 µM; in the test on OVCAR-4 ovarian, 68.6 µM.
As to `O=C(CO[N+](=O)[O-])Nc1ccc(C(=O)/C=C/c2ccc(Cl)cc2)cc1`, the GI50 with NCI-H226 lung was 5.15 µM; in the test on UO-31 renal, 1.52 µM; with SF-539 CNS, 2.52 µM; with OVCAR-8 ovarian it was 3.24 µM; with CAKI-1 renal, 11.8 µM; in the test on HOP-92 NSCLC it was 2.95 µM. Also, the GI50 is 2.62 µM in the test on SF-268 CNS, 0.298 µM in the test on HCT-116 colon, 1.59 µM in the test with LOX IMVI melanoma and 4.06 µM in the test on OVCAR-4 ovarian. Also, the total growth inhibition concentration (TGI) in the test with NCI-H226 lung amounted to 29 µM; in the test with UO-31 renal, 12.1 µM; in the test with SF-539 CNS, 8.81 µM; with OVCAR-8 ovarian, 14 µM; in the test on CAKI-1 renal it was 54.5 µM; with HOP-92 NSCLC, 15.2 µM. The concentration for total growth inhibition (TGI) in the test with SF-268 CNS was found to be 11.7 µM; in the test on HCT-116 colon, 1.09 µM; with LOX IMVI melanoma, 3.51 µM; in the test with OVCAR-4 ovarian, 21 µM.
As to `OCc1ccc(-c2ccc(-c3ccc(CO)o3)[se]2)o1`, the GI50 is 0.3 µM with NCI-H226 lung; above 95.3 µM in the test on UO-31 renal; above 100 µM with SF-539 CNS; 55.8 µM in the test with OVCAR-8 ovarian; above 100 µM in the test with CAKI-1 renal; 48.2 µM in the test on HOP-92 NSCLC. Also, the GI50 was above 100 µM with SF-268 CNS, 69.4 µM with HCT-116 colon, above 91.9 µM in the test on LOX IMVI melanoma and 35.4 µM in the test with OVCAR-4 ovarian. The TGI was 1.55 µM in the test on NCI-H226 lung; above 100 µM with UO-31 renal; above 100 µM in the test with SF-539 CNS; above 100 µM with OVCAR-8 ovarian; above 100 µM in the test on CAKI-1 renal; above 100 µM with HOP-92 NSCLC. The TGI in the test on SF-268 CNS, with HCT-116 colon, in the test with LOX IMVI melanoma and in the test on OVCAR-4 ovarian was above 100 µM each time.
With `O=c1c(Oc2ccc(F)cc2F)cc2cnc(NC3CCOCC3)nc2n1CCCO`, the GI50 in the test on NCI-H226 lung is above 25 µM; in the test on UO-31 renal, above 11.3 µM; in the test with SF-539 CNS, above 25 µM; in the test with OVCAR-8 ovarian, above 25 µM; in the test on CAKI-1 renal, above 25 µM; in the test on HOP-92 NSCLC it was above 25 µM. For the same compound, the GI50 in the test on SF-268 CNS is above 25 µM; in the test with HCT-116 colon, above 25 µM; in the test on LOX IMVI melanoma, above 25 µM; with OVCAR-4 ovarian, above 14.6 µM. For the same compound, the TGI in the test on NCI-H226 lung was above 25 µM; in the test on UO-31 renal it was above 21.1 µM; in the test with SF-539 CNS, above 25 µM; in the test on OVCAR-8 ovarian, above 25 µM; in the test with CAKI-1 renal it was above 25 µM; in the test with HOP-92 NSCLC, above 25 µM. Moreover, the TGI in the test on SF-268 CNS, with HCT-116 colon, in the test on LOX IMVI melanoma and in the test with OVCAR-4 ovarian was above 25 µM in each case.
`COc1ccc(Nc2nc3ccc(C(F)(F)F)cc3nc2-c2ccccc2)cc1OC`: the concentration for total growth inhibition (TGI) in the test with NCI-H226 lung was above 100 µM; with UO-31 renal it was 72.9 µM; in the test on SF-539 CNS, above 100 µM; with OVCAR-8 ovarian it was above 100 µM; in the test with CAKI-1 renal, 86.1 µM; with HOP-92 NSCLC, 36.9 µM. Besides, the TGI was above 100 µM with SF-268 CNS, above 100 µM with HCT-116 colon, 31.6 µM in the test with LOX IMVI melanoma and above 100 µM in the test on OVCAR-4 ovarian.
In the case of `C[N-]c1nnnn1C.[Au+].c1ccc([PH+](c2ccccc2)c2ccccc2)cc1`, the GI50 in the test with NCI-H226 lung was 4.98 µM; with UO-31 renal, 12.7 µM; with SF-539 CNS it was 2.38 µM; in the test with OVCAR-8 ovarian it was 3.18 µM; in the test with CAKI-1 renal, 2.39 µM; in the test on HOP-92 NSCLC it was 2.67 µM. In addition, the GI50 is 3.5 µM in the test on SF-268 CNS, 11.7 µM in the test with HCT-116 colon, 2.12 µM in the test on LOX IMVI melanoma and 3.19 µM with OVCAR-4 ovarian. Moreover, the total growth inhibition concentration (TGI) in the test with NCI-H226 lung was determined as 14 µM; in the test with UO-31 renal it was 25.3 µM; in the test with SF-539 CNS it was 7.39 µM; in the test with OVCAR-8 ovarian it was 14.2 µM; in the test on CAKI-1 renal it was 5 µM; in the test on HOP-92 NSCLC it was 5.42 µM. The total growth inhibition concentration (TGI) was determined as 15.4 µM in the test on SF-268 CNS, 23.9 µM in the test on HCT-116 colon, 5.77 µM in the test on LOX IMVI melanoma and 12.9 µM in the test on OVCAR-4 ovarian.
Turning to `CC(C)CCC(=O)c1ccoc1`, the TGI with NCI-H226 lung, in the test with UO-31 renal, in the test on SF-539 CNS, in the test on OVCAR-8 ovarian, in the test with CAKI-1 renal and with HOP-92 NSCLC was above 100 µM in each case. Also, the concentration for total growth inhibition (TGI) in the test with SF-268 CNS, with HCT-116 colon, in the test on LOX IMVI melanoma and in the test with OVCAR-4 ovarian was above 100 µM each time.
Consider `CC(C)=CCc1c(OC(=O)c2c(C)cc(O)cc2O)cc(CO)c(CO)c1O`, for which the TGI was above 100 µM with NCI-H226 lung; 34.4 µM in the test with UO-31 renal; 38 µM in the test with SF-539 CNS; 63.9 µM in the test on OVCAR-8 ovarian; 20.5 µM in the test with CAKI-1 renal; 52.3 µM in the test with HOP-92 NSCLC. Besides, the TGI was 85 µM with SF-268 CNS, 43.9 µM with HCT-116 colon, 40.9 µM in the test with LOX IMVI melanoma and 38.2 µM in the test with OVCAR-4 ovarian.
Regarding `Nc1ccc(C2=NN(c3ccccc3)C(c3ccc(Cl)cc3)C2)cc1` (stereo not given), the GI50 is 2.13 µM with NCI-H226 lung; 1.54 µM in the test on UO-31 renal; 1.93 µM in the test on SF-539 CNS; 3.15 µM in the test with OVCAR-8 ovarian; 3.21 µM in the test on CAKI-1 renal; 2.61 µM in the test with HOP-92 NSCLC. Moreover, the GI50 in the test with SF-268 CNS was 4.22 µM; with HCT-116 colon, 1.64 µM; in the test with LOX IMVI melanoma it was 1.66 µM; in the test with OVCAR-4 ovarian, 4.84 µM. Moreover, the TGI stood at 6.38 µM in the test with NCI-H226 lung; 3.06 µM in the test on UO-31 renal; 4.21 µM in the test on SF-539 CNS; 13.2 µM with OVCAR-8 ovarian; 14 µM with CAKI-1 renal; 17.3 µM in the test on HOP-92 NSCLC. Besides, the TGI in the test with SF-268 CNS was determined as 19.8 µM; in the test with HCT-116 colon, 3.01 µM; in the test on LOX IMVI melanoma it was 3.05 µM; in the test on OVCAR-4 ovarian, 45.5 µM.
With `Cc1cnc(NC(=O)Nc2cc(Br)c(C)cc2OC[C@@H]2CNCCO2)cn1`, the GI50 was 5.84 µM in the test on NCI-H226 lung; 0.483 µM and 1.06 µM with UO-31 renal; 0.457 µM and 0.281 µM in the test on SF-539 CNS; 0.666 µM and 0.664 µM with OVCAR-8 ovarian; 1.74 µM and 0.852 µM in the test on CAKI-1 renal; 0.546 µM and 0.389 µM in the test with HOP-92 NSCLC. Also, the GI50 with SF-268 CNS was 3.66 µM and 2.33 µM; with HCT-116 colon, 3.09 µM and 3.35 µM; with LOX IMVI melanoma, 0.828 µM and 1.45 µM; in the test on OVCAR-4 ovarian, 5.85 µM and 1.05 µM. In addition, the total growth inhibition concentration (TGI) with NCI-H226 lung was > 10 µM and 20.8 µM; in the test with UO-31 renal, > 10 µM and 12 µM; in the test with SF-539 CNS, 3.87 µM and 0.805 µM; in the test on OVCAR-8 ovarian it was > 10 µM and 12.8 µM; in the test on CAKI-1 renal, > 10 µM and 6.16 µM; in the test with HOP-92 NSCLC, > 10 µM and 5.72 µM. The TGI in the test on SF-268 CNS was > 10 µM and 13.6 µM; with HCT-116 colon it was > 10 µM and 13.3 µM; with LOX IMVI melanoma it was 2.46 µM and 4.97 µM; with OVCAR-4 ovarian, > 10 µM and 15.5 µM.
